Values joined by “and” are separate entries in the source; they are usually repeats but may differ in a detail not shown here. Equal entries are not always repeated. Where two headings read alike, the source gives them in different places. No end group written: not given here.
Tests used:
[1] = molecular target: T1, PLY (Streptococcus pneumoniae serotype 4, UniProt P0C2J9); type: cell-based
[2] = tested on: S. pneumoniae strain T4; assay: Hemolytic activity of whole bacteria, S. pneumoniae T4; type: cell-based, Streptococcus pneumoniae; details: 100 μM peptide
Method: Human blood from anonymous healthy donors (obtained from Karolinska University Hospital) was diluted 1:100 in PBS with 0.5 mM DTT and mixed 1:1 with twofold serial dilutions of 10^8 CFUs of bacteria or 1 μg/ml purified bacterial toxins in 96‐well plates. The MRC‐1 peptides were serially diluted 10‐fold (1–1,000 μM) in PBS and added to the wells prior to addition of blood. The blood was co‐incubated with whole bacteria or purified toxins at 37°C for 1 h, and after 50 min, 0.1% triton X‐100 was added to the positive control wells. Cells were spun down at 400 g for 15 min and the absorbance of the supernatants was measured at 540 nm in a microplate reader. Percentage of lysis compared to the toxin alone was calculated. All samples were assayed in triplicates.

[3] = molecular target: T1, PLY; type: cell-based; remark: listed apart in the source
[4] = tested on: S.pneumoniae T4R; assay: Co-localization of intracellular T4R with MRC-1 and LC3B in DCs; type: cell-based, Streptococcus pneumoniae; details: for % bacteria colocalized with MRC-1 / % bacteria colocalized with LC3B / number of bacteria (of n=50) colocalized with LC3B / number of bacteria (of n=50) colocalized with MRC-1: T4R in DCs
[5] = molecular target: T1, PLY; details: for % cytotoxicity relative to positive control (lysis buffer), LDH: 18 h
[6] = tested on: S. pneumoniae T4; assay: Mouse intranasal infection (pneumonia) model: survival, lung bacterial load, lung cytokines
Method: Six‐week‐old male C57BL/6 wild‐type mice were used (Charles River, Germany). The study included 10 mice/individual group which were randomly assigned to the different treatment groups. Sample size calculations were determined according to previous experience (Subramanian et al, 2019b). […] The mice were checked at least twice every day; morning at 9 am (referred as “early check”) and evening at 7 pm (referred as “late check”). Post‐mortem, lungs were collected and washed in PBS and homogenized by passing through the 100‐μm cell strainer. Bacterial counts were determined from lung homogenates by viable count on blood agar plates. Aliquots of lung homogenates were frozen at −80°C for cytokine quantification by ELISA.
The levels of TNF‐α, IL‐8, and IL‐12 (p70) in the culture supernatants and mouse lung tissue were analyzed using the OptEIA ELISA kit (BD Biosciences) following the manufacturer's instructions.

T1 sequence (P0C2J9 whole entry, looked up): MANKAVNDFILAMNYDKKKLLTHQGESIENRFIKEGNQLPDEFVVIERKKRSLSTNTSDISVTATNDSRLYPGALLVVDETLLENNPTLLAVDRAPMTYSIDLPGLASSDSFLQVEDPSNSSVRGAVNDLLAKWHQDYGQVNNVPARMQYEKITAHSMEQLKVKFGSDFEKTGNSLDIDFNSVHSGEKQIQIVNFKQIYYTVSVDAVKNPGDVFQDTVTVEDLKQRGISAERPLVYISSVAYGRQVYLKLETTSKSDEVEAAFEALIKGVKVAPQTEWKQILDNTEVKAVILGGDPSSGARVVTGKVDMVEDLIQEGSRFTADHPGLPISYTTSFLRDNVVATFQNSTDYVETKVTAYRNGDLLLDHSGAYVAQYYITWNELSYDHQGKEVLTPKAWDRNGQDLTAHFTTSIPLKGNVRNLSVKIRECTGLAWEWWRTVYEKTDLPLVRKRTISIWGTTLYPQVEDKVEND

## FTWSDGSPVSYEN [P2]
[1]
  inhibition of PLY-induced hemolysis: up to 50%
  inhibition of hemolysis induced by purified PLY: up to 50%
[1]; read-out: ED50 (median effective dose) vs purified PLY, human, blood, 60 min
  IC50: 6.6 µM
[2]
  hemolytic activity of pneumococcal strain T4: significantly reduced
[2]; T4 312500 CFU/ml, experiment 1 of 3
  %hemolytic activity relative to positive control (0.1% Triton X): -0.1%
[2]; T4 312500 CFU/ml, experiment 2 of 3
  %hemolytic activity relative to positive control (0.1% Triton X): 4%
[2]; T4 312500 CFU/ml, experiment 3 of 3
  %hemolytic activity relative to positive control (0.1% Triton X): 4.3%
[2]; T4 625000 CFU/ml, experiment 1 of 3
  %hemolytic activity relative to positive control (0.1% Triton X): -0.4%
[2]; T4 625000 CFU/ml, experiment 2 of 3
  %hemolytic activity relative to positive control (0.1% Triton X): 4.5%
[2]; T4 625000 CFU/ml, experiment 3 of 3
  %hemolytic activity relative to positive control (0.1% Triton X): 4.7%
[2]; T4 12500000 CFU/ml, experiment 1 of 3
  %hemolytic activity relative to positive control (0.1% Triton X): -0.7%
[2]; T4 12500000 CFU/ml, experiment 2 of 3
  %hemolytic activity relative to positive control (0.1% Triton X): 4.6%
[2]; T4 12500000 CFU/ml, experiment 3 of 3
  %hemolytic activity relative to positive control (0.1% Triton X): 4.6%
[2]; T4 25000000 CFU/ml, experiment 1 of 3
  %hemolytic activity relative to positive control (0.1% Triton X): 0.2%
[2]; T4 25000000 CFU/ml, experiment 2 of 3
  %hemolytic activity relative to positive control (0.1% Triton X): 4.4%
[2]; T4 25000000 CFU/ml, experiment 3 of 3
  %hemolytic activity relative to positive control (0.1% Triton X): 20%
[2]; T4 50000000 CFU/ml, experiment 1 of 3
  %hemolytic activity relative to positive control (0.1% Triton X): 15.6%
[2]; T4 50000000 CFU/ml, experiment 2 of 3
  %hemolytic activity relative to positive control (0.1% Triton X): 19.9%
[2]; T4 50000000 CFU/ml, experiment 3 of 3
  %hemolytic activity relative to positive control (0.1% Triton X): 19.6%
[2]; T4 100000000 CFU/ml, experiment 1 of 3
  %hemolytic activity relative to positive control (0.1% Triton X): 32%
[2]; T4 100000000 CFU/ml, experiment 2 of 3
  %hemolytic activity relative to positive control (0.1% Triton X): 30.8%
[2]; T4 100000000 CFU/ml, experiment 3 of 3
  %hemolytic activity relative to positive control (0.1% Triton X): 19.1%
[3]
  loss of GFP expression in 3D lung epithelial model: significantly lower
[4]; DCs, 100 μM peptide
  co-localization of intracellular T4R with MRC‐1 and LC3B: did not co‐localize with MRC‐1, but co‐stained with LC3B
[4]; MOI 10, 100 μM peptide, n=50 bacteria, experiment 1 of 2
  % bacteria colocalized with MRC-1: 30%
[4]; experiment 1 of 2
  % bacteria colocalized with LC3B: 70%
  number of bacteria (of n=50) colocalized with LC3B: 35
  number of bacteria (of n=50) colocalized with MRC-1: 15
[4]; experiment 2 of 2
  % bacteria colocalized with LC3B: 76%
  % bacteria colocalized with MRC-1: 24%
  number of bacteria (of n=50) colocalized with LC3B: 38
  number of bacteria (of n=50) colocalized with MRC-1: 12
[5]
  cell death of macrophages induced by PLY, LDH release: significantly reduced cell death
  % cytotoxicity relative to positive control (lysis buffer), LDH: 52.47%
[5]; 100 μM
  % cytotoxicity relative to positive control (lysis buffer), LDH: 50.12% and 52.81% and 49.35%
[6]; Mouse 1 of its group
  Mouse survival, death recorded: 1
[6]; Mouse 1 of its group, intranasal 2 × 10^6 CFU T4 with 5 μg peptide/mouse (25 μg CaP NPs)
  Mouse survival, Time (coded): 4
[6]; Mouse 2 of its group
  CFU/ml in mouse lung homogenates: 160000000 CFU/ml
  Mouse survival, Time (coded): 4
  Mouse survival, death recorded: 1
[6]; Mouse 3 of its group
  CFU/ml in mouse lung homogenates: 160000000 CFU/ml
  Mouse survival, Time (coded): 5
  Mouse survival, death recorded: 1
[6]; Mouse 4 of its group
  CFU/ml in mouse lung homogenates: 180000000 CFU/ml
  Mouse survival, Time (coded): 6
  Mouse survival, death recorded: 0
[6]; Mouse 5 of its group
  CFU/ml in mouse lung homogenates: 100000000 CFU/ml
  Mouse survival, Time (coded): 4
  Mouse survival, death recorded: 1
[6]; Mouse 6 of its group
  CFU/ml in mouse lung homogenates: 2.6E+07 CFU/ml
  Mouse survival, Time (coded): 4
  Mouse survival, death recorded: 1
[6]; Mouse 7 of its group
  CFU/ml in mouse lung homogenates: 2.5E+07 CFU/ml
  Mouse survival, Time (coded): 4
  Mouse survival, death recorded: 1
[6]; Mouse 8 of its group
  CFU/ml in mouse lung homogenates: 1.7E+07 CFU/ml
  Mouse survival, Time (coded): 4
  Mouse survival, death recorded: 1
[6]; Mouse 9 of its group
  CFU/ml in mouse lung homogenates: 1.7E+07 CFU/ml
  Mouse survival, Time (coded): 4
  Mouse survival, death recorded: 1
[6]; Mouse 10 of its group
  CFU/ml in mouse lung homogenates: 1.0E+07 CFU/ml
  Mouse survival, Time (coded): 5
  Mouse survival, death recorded: 1
[6]; animal in data line 1
  IL-12 levels in mouse lung homogenates: 4502.5 pg/mL
[6]; animal in data line 2
  IL-12 levels in mouse lung homogenates: 3606.25 pg/mL
  TNF-a levels in lung: 645.91 pg/mL
[6]; animal in data line 3
  IL-12 levels in mouse lung homogenates: 5321.25 pg/mL
  TNF-a levels in lung: 377.50 pg/mL
[6]; animal in data line 4
  IL-12 levels in mouse lung homogenates: 8600 pg/mL
  TNF-a levels in lung: 853.64 pg/mL
[6]; animal in data line 5
  IL-12 levels in mouse lung homogenates: 7346.25 pg/mL
  TNF-a levels in lung: 703.86 pg/mL
[6]; animal in data line 6
  IL-12 levels in mouse lung homogenates: 6002.5 pg/mL
  TNF-a levels in lung: 679.08 pg/mL
[6]; animal in data line 7
  IL-12 levels in mouse lung homogenates: 5505 pg/mL
  TNF-a levels in lung: 828.95 pg/mL
[6]; animal in data line 8
  IL-12 levels in mouse lung homogenates: 3275 pg/mL
  TNF-a levels in lung: 612.89 pg/mL
[6]; animal in data line 9
  IL-12 levels in mouse lung homogenates: 4967.5 pg/mL
  TNF-a levels in lung: 782.63 pg/mL
[6]; animal in data line 10
  IL-12 levels in mouse lung homogenates: 8335 pg/mL
  TNF-a levels in lung: 757.37 pg/mL
[6]; infected mice
  levels of TNF‐α and IL‐12 in the lung tissue: significantly reduced
[6]; infected mice, post‐sacrifice, animal in data line 1
  TNF-a levels in lung: 263.18 pg/mL
[6]; intranasal T4 2 × 10^6 CFUs, 5 μg peptide/mouse
  mouse survival: prolonged survival
[6]; post‐mortem, Mouse 1 of its group
  CFU/ml in mouse lung homogenates: 160000000 CFU/ml

Source: paper PMC7645366 (EMBO Molecular Medicine, 2020)
